# Reference: ChEMBL document CHEMBL5715954, “Silencing c-Myc translation as a therapeutic strategy through targeting PI3Kδ and CK1ε in hematological malignancies” (Blood, 2017)
# Tests used:
# Set-up in all cases: scale not given: the % may be the effect or the level left
# [1] = target: T1, NUAK family SNF1-like kinase 1 (Homo sapiens) (UniProt O60285); test: Inhibition of human ARK5 assessed as enzyme activity at 1 uM using KKKVSRSGLYRSPSMPENLNRPR as substrate preincubated for 20 mins followed by [gamma-33P]-ATP addition and measured after 120 mins by radiometric Hot-SpotSM Kinase assay relative to control
# T1 sequence (whole entry): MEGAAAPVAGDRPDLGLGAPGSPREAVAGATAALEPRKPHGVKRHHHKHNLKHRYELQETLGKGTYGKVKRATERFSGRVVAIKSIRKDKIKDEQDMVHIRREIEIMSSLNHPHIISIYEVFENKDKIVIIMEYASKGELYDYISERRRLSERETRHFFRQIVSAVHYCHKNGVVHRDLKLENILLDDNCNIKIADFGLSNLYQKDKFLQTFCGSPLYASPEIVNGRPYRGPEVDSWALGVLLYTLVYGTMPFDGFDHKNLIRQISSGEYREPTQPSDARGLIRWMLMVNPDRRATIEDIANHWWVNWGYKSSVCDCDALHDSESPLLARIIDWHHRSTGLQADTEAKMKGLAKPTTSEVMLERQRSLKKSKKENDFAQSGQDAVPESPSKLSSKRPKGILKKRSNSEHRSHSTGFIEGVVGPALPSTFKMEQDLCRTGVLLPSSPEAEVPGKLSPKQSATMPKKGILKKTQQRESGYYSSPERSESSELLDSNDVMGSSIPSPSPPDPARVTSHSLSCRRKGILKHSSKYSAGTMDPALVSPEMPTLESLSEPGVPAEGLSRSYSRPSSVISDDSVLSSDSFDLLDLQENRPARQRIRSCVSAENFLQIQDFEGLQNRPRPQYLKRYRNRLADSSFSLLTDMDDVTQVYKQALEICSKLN
# [2] = target: Homeodomain-interacting protein kinase 2 (Homo sapiens) (UniProt Q9H2X6); test: Inhibition of human HIPK2 assessed as enzyme activity at 1 uM using myelin basic protein as substrate preincubated for 20 mins followed by [gamma-33P]-ATP addition and measured after 120 mins by radiometric Hot-SpotSM Kinase assay relative to control
# [3] = target: Inactive tyrosine-protein kinase PEAK1 (Homo sapiens) (UniProt Q9H792); test: Inhibition of human PEAK1 assessed as enzyme activity at 1 uM using poly[Glu:Tyr] (4:1) as substrate preincubated for 20 mins followed by [gamma-33P]-ATP addition and measured after 120 mins by radiometric Hot-SpotSM Kinase assay relative to control
# [4] = target: Serine/threonine-protein kinase tousled-like 2 (Homo sapiens) (UniProt Q86UE8); test: Inhibition of human TLK2 assessed as enzyme activity at 1 uM using casein as substrate preincubated for 20 mins followed by [gamma-33P]-ATP addition and measured after 120 mins by radiometric Hot-SpotSM Kinase assay relative to control
# [5] = target: T2, Tyrosine-protein kinase ZAP-70 (Homo sapiens) (UniProt P43403); test: Inhibition of human ZAP70 assessed as enzyme activity at 1 uM using poly[Glu:Tyr] (4:1) as substrate preincubated for 20 mins followed by [gamma-33P]-ATP addition and measured after 120 mins by radiometric Hot-SpotSM Kinase assay relative to control
# T2 sequence (whole entry): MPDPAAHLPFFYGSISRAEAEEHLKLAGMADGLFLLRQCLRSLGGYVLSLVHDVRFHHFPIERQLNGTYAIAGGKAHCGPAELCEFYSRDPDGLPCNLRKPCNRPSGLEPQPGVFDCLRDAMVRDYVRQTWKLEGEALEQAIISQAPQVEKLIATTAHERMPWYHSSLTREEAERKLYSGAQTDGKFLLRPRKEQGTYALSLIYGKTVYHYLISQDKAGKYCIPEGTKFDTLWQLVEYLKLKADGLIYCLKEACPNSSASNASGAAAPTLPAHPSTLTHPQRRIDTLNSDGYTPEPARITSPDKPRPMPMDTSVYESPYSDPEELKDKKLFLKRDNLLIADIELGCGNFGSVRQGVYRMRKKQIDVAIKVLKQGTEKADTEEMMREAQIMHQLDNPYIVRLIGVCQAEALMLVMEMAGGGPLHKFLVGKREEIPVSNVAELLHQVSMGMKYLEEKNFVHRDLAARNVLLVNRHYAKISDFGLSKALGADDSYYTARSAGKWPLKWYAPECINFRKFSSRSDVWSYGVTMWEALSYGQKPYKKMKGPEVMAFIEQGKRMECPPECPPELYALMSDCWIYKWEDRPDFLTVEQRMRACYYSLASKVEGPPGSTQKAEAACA
# [6] = target: CDK9/cyclin T1 (Homo sapiens) (UniProt O60563+P50750); test: Inhibition of human CDK9/cyclin T1 assessed as enzyme activity at 1 uM using KTFCGTPEYLAPEVRREPRILSEEEQEMFRDFDYIADWC as substrate preincubated for 20 mins followed by [gamma-33P]-ATP addition and measured after 120 mins by radiometric Hot-SpotSM Kinase assay relative to control; assay type: protein-complex assay
# [7] = target: Tyrosine-protein kinase HCK (Homo sapiens) (UniProt P08631); test: Inhibition of human HCK assessed as enzyme activity at 1 uM using KVEKIGEGTYGVVYK as substrate preincubated for 20 mins followed by [gamma-33P]-ATP addition and measured after 120 mins by radiometric Hot-SpotSM Kinase assay relative to control
# [8] = target: Serine/threonine-protein kinase pim-2 (Homo sapiens) (UniProt Q9P1W9); test: Inhibition of human PIM2 assessed as enzyme activity at 1 uM using RSRHSSYPAGT as substrate preincubated for 20 mins followed by [gamma-33P]-ATP addition and measured after 120 mins by radiometric Hot-SpotSM Kinase assay relative to control
# [9] = target: Protein kinase C beta type (Homo sapiens) (UniProt P05771); test: Inhibition of human PKCb2 assessed as enzyme activity at 1 uM using ERMRPRKRQGSVRRRV as substrate preincubated for 20 mins followed by [gamma-33P]-ATP addition and measured after 120 mins by radiometric Hot-SpotSM Kinase assay relative to control
# [10] = target: Serine/threonine-protein kinase PAK 4 (Homo sapiens) (UniProt O96013); test: Inhibition of human PAK4 assessed as enzyme activity at 1 uM using RRRLSFAEPG as substrate preincubated for 20 mins followed by [gamma-33P]-ATP addition and measured after 120 mins by radiometric Hot-SpotSM Kinase assay relative to control
# [11] = target: Calcium/calmodulin-dependent protein kinase type 1G (Homo sapiens) (UniProt Q96NX5); test: Inhibition of human CAMK1g assessed as enzyme activity at 1 uM using KKALRRQETVDAL as substrate preincubated for 20 mins followed by [gamma-33P]-ATP addition and measured after 120 mins by radiometric Hot-SpotSM Kinase assay relative to control
# [12] = target: Serine/threonine-protein kinase 38 (Homo sapiens) (UniProt Q15208); test: Inhibition of human STK38 assessed as enzyme activity at 1 uM using KKRNRRLSVA as substrate preincubated for 20 mins followed by [gamma-33P]-ATP addition and measured after 120 mins by radiometric Hot-SpotSM Kinase assay relative to control
# Sequence of Serine/threonine-protein kinase 38 (Homo sapiens) (Q15208 2-465 limits assumed): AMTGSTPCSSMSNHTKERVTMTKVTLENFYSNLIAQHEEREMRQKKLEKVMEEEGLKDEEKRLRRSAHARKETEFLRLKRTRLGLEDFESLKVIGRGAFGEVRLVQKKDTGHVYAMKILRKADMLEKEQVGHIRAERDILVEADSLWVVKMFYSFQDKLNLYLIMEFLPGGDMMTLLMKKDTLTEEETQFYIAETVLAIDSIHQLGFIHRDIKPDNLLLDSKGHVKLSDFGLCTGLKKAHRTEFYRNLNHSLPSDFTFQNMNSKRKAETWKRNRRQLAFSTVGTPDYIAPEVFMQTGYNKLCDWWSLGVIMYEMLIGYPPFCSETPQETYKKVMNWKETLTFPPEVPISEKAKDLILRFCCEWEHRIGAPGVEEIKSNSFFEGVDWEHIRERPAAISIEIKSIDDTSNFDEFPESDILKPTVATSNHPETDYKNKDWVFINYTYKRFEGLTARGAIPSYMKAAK
# Sequence of Tyrosine-protein kinase HCK (Homo sapiens) (P08631 2-526 limits assumed): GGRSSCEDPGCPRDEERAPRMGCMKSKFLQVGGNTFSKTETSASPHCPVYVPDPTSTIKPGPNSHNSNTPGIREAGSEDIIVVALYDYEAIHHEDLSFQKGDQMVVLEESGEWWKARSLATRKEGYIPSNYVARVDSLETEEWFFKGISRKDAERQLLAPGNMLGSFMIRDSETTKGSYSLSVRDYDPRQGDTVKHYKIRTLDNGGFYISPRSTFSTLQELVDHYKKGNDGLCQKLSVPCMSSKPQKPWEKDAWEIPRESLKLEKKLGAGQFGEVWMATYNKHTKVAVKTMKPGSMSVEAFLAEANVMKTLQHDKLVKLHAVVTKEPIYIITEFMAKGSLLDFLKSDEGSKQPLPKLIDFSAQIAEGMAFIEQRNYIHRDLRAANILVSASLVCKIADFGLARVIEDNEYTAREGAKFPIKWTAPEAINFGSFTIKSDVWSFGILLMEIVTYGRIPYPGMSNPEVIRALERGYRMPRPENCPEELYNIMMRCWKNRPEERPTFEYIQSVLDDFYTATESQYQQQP
# Sequence of Inactive tyrosine-protein kinase PEAK1 (Homo sapiens) (Q9H792 whole entry): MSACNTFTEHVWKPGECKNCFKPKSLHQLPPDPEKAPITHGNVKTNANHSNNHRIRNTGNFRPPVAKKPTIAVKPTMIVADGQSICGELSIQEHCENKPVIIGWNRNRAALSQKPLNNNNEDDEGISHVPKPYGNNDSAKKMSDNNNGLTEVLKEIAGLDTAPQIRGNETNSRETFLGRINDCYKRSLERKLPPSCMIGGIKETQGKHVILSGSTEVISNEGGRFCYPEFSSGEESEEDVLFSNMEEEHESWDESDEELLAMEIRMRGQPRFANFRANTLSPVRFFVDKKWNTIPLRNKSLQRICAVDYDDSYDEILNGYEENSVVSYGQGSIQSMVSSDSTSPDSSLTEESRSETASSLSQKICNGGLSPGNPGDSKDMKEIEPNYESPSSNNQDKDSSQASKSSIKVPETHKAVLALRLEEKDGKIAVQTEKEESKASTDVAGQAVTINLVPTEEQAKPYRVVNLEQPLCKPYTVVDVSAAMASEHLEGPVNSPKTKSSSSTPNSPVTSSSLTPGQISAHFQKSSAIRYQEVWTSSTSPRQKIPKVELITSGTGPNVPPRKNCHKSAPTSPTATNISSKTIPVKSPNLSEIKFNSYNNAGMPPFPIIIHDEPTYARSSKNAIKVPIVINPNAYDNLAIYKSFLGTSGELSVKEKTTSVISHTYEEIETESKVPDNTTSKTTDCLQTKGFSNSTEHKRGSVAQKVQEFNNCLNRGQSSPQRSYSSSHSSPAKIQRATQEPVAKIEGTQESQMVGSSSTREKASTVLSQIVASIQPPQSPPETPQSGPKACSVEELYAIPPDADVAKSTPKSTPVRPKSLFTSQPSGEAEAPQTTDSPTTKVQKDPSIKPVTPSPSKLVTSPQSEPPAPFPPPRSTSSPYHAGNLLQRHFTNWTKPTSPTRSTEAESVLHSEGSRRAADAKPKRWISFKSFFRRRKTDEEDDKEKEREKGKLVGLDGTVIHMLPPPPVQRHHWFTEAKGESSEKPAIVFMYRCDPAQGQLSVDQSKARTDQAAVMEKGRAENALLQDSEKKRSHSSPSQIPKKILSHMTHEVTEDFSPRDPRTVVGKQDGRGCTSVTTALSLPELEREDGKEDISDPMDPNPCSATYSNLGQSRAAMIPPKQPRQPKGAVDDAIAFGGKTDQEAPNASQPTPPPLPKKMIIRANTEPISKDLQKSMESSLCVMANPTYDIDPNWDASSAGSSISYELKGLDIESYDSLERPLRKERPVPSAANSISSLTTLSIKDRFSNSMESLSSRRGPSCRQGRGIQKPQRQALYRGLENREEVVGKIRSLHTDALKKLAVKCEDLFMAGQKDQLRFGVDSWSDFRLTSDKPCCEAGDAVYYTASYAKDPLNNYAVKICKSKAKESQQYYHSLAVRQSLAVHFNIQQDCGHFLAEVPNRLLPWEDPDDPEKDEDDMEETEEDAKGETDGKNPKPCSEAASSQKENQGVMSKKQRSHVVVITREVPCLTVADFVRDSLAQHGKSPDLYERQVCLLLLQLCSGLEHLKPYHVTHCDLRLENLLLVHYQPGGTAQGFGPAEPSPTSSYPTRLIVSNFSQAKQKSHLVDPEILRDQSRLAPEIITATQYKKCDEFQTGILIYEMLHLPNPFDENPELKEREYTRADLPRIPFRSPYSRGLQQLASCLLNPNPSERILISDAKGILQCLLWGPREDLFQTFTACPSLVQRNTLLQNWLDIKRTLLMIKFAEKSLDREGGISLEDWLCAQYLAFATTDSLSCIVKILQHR
# Sequence of Serine/threonine-protein kinase PAK 4 (Homo sapiens) (O96013 whole entry, looked up): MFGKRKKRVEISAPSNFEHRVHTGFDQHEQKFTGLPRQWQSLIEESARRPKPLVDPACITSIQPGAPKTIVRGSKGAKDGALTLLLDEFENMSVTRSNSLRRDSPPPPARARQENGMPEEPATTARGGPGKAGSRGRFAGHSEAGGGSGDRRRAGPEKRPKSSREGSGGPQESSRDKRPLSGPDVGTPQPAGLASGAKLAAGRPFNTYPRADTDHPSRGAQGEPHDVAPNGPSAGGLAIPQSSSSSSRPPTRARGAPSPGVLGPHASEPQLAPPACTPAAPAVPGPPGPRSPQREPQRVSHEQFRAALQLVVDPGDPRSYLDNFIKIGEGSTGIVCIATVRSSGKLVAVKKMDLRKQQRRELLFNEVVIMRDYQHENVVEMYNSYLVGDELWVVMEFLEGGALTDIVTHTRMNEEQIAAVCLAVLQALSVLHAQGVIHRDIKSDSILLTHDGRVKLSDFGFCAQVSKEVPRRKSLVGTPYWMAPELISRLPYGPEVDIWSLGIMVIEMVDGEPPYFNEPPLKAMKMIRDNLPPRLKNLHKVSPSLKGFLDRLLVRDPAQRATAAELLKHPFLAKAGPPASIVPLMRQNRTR
# Sequence of Protein kinase C beta type (Homo sapiens) (P05771 2-671 limits assumed): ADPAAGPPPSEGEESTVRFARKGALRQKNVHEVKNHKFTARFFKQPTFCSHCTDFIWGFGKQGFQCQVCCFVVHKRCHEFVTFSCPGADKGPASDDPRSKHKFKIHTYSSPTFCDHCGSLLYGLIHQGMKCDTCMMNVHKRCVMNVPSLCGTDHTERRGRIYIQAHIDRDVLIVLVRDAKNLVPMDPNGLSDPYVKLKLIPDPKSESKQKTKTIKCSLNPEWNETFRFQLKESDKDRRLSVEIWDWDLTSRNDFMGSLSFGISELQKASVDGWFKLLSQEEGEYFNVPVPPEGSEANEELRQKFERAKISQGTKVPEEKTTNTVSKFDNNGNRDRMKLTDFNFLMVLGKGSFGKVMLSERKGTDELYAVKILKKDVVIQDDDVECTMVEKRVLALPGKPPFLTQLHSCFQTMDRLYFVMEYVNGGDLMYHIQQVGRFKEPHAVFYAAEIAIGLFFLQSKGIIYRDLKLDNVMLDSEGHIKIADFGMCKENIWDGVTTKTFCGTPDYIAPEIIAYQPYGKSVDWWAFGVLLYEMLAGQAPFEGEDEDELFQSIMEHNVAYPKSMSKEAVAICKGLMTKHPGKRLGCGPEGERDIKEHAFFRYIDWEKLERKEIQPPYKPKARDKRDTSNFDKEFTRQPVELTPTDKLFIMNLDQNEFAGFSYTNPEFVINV
# Sequence of Serine/threonine-protein kinase tousled-like 2 (Homo sapiens) (Q86UE8 whole entry, looked up): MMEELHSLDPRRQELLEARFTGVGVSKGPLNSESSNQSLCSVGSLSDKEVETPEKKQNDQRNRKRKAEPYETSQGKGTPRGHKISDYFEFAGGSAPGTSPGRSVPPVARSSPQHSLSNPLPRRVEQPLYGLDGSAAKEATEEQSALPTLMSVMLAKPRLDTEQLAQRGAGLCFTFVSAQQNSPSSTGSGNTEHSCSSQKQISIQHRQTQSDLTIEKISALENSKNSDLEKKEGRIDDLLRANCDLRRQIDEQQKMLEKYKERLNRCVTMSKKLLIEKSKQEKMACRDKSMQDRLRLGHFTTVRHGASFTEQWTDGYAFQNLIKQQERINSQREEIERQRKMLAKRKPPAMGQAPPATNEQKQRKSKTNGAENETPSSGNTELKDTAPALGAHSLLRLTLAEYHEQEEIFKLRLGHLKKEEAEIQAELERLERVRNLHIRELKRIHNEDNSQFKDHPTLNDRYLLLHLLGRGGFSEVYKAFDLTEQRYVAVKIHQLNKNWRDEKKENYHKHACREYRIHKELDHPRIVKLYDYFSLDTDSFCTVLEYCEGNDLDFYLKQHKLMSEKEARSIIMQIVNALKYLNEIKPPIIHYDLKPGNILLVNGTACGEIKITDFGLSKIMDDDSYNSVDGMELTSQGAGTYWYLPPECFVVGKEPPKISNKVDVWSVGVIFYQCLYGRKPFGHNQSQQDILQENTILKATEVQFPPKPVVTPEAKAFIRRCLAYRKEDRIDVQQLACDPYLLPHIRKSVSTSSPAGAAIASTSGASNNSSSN
smiles,measurement,setting,value
CC[C@H](Nc1ncnc2[nH]cnc12)c1nc2cccc(F)c2c(=O)n1-c1ccccc1,Activity,[1],102%
same,Activity,[2],100%
same,Activity,[3],93.3%
same,Activity,[4],94%
same,Activity,[5],100%
same,Activity,[6],89.5%
same,Activity,[7],93.9%
same,Activity,[8],100%
same,Activity,[9],91%
same,Activity,[10],95.9%
same,Activity,[11],102%
same,Activity,[12],94.5%
C[C@H](Nc1ncnc2nc[nH]c12)c1cc2cccc(Cl)c2c(=O)n1-c1ccccc1,Activity,[1],95%
same,Activity,[2],100%
same,Activity,[3],89.4%
same,Activity,[4],97.3%
same,Activity,[5],99.7%
same,Activity,[6],96.2%
same,Activity,[7],98.7%
same,Activity,[8],98.1%
same,Activity,[9],93.9%
same,Activity,[10],107%
same,Activity,[11],99.1%
same,Activity,[12],86.5%
CC(C)Oc1ccc(-c2nn([C@@H](C)c3oc4ccc(F)cc4c(=O)c3-c3cccc(F)c3)c3ncnc(N)c23)cc1F [UMBRALISIB],Activity,[1],97.8%
same,Activity,[2],107%
same,Activity,[3],95%
same,Activity,[4],96.3%
same,Activity,[5],99.4%
same,Activity,[6],98.5%
same,Activity,[7],91%
same,Activity,[8],101%
same,Activity,[9],91.3%
same,Activity,[10],99.1%
same,Activity,[11],98.9%
same,Activity,[12],91.4%
